Experimental data published in US8633186B2, “Modulation of chemosensory receptors and ligands associated therewith” (Senomyx Inc., priority 2007, dated 2014).
Values belong to the compound of their own block, whether it stands above or below them.

How the values were obtained:
[1] = test system: human panelists (perceived sweetness intensity); assay: Sweet flavor and sweet flavor enhancement, human panelists, scaling test; assay type: in vivo; set-up: key: 0-15 line scale; 0 = no sweetness, 15 = 15% sucrose sweetness
Text: Test samples containing experimental compounds were compared to a dose-response curve for perceived sweetness intensity of sweeteners (such as, for example, sucralose, sucrose, fructose and other sweeteners) concentrations to determine equivalent sweetness intensity.
A group of eight or more panelists tasted solutions including sweeteners at various concentrations, as well as the experimental compound both with and without added sweetener. Panelists then rated sweetness intensity of all samples on a structured horizontal line scale, anchored from 0 to 15, where 0 equals no sweetness and 15 equals equivalent sweetness to a 15% sucrose sample. Scores for sweetness intensity were averaged across panelists. Then using the average scores and/or equation of the line for the sweetener dose-response curve, equivalent sweetness concentrations were determined for the samples containing experimental compounds.
Subjects had been previously familiarized with the key attribute taste and were trained to use the 0 to 15 point line scale. Subjects refrained from eating or drinking (except water) for at least 1 hour prior to the test. Subjects ate a cracker and rinsed with water several times to clean the mouth.
Sweetener solutions are provided at a wide range of concentrations such as 100 ppm, 200 ppm, 300 ppm, 400 ppm, and 500 ppm for sucralose, or between 0% and 12% for sucrose or fructose, in order to create a dose-response curve. Samples containing experimental compound were prepared both alone and in a 100 ppm sucralose solution or a 6% sucrose or fructose solution. All samples were made up in low sodium buffer pH 7.1. In order to aid dispersion, solutions can be made up in 0.1% ethanol.
The solutions were dispensed in 20 ml volumes into 1 oz. sample cups and served to the subjects at room temperature. All samples were presented in randomized counterbalanced order to reduce response bias. Further, two sessions of testing may be used to check panel precision.
Subjects tasted each sample individually and rate sweetness intensity on the line scale prior to tasting the next sample. All samples were expectorated. Subjects may retaste the samples but can only use the volume of sample given. Subjects must rinse with water between samples. Eating an unsalted cracker between samples may be required depending on the samples tasted.
The scores for each sample were averaged across subjects and standard error was calculated. The dose-response curve was plotted graphically, and this may be used to ensure the panel is rating accurately; i.e., increasing the concentration of sucralose should correspond to increased average scores for sweetness. A 2-way ANOVA (factors being samples and panelists) and multiple comparison tests (such as Tukey's Honestly Significant Difference test) can be used to determine differences among samples and/or panelists. A 3-way ANOVA, with sessions as the third factor, can be used to determine if there is any difference in the ratings between sessions.

SMILES: NC1=NS(=O)(=O)Nc2cccc(OC3CCCC3)c21 [Example 169, 4-Amino-5-(cyclopentoxy)-1H-benzo[c][1,2,6]thiadiazine-2,2-dioxide]
melting point: > 260 °C

melting point: 246 to 247 °C
SMILES: NC1=NS(=O)(=O)Nc2cccc(OCC3CC3)c21 [Example 186, (S)-4-Amino-5-(cyclopropylmethoxy)-1H-benzo[c][1,2,6]thiadiazine-2,2-dioxide]

melting point: > 250 °C
SMILES: Nc1cc(=O)[nH]c2ccccc12 [Example 65, 4-Aminoquinolin-2(1H)-one]

melting point: > 250 °C
SMILES: CC(C)=Cc1c(F)ccc2c1C(N)=NS(=O)(=O)N2 [Example 134, 4-Amino-6-fluoro-5-(2-methylprop-1-enyl)-1H-benzo[c][1,2,3]thiadiazine-2,2-dioxide]

SMILES: OC[C@H]1O[C@@](CO)(O[C@H]2O[C@H](CO)[C@@H](O)[C@H](O)[C@H]2O)[C@@H](O)[C@@H]1O [Sucrose, sucrose]
Average sweetness score (line scale 0 to 15) ([1]; Table 5, 2% sucrose alone): 2.4 | Average sweetness score (line scale 0 to 15) ([1]; Table 7, 2% sucrose alone): 1.8 | Average sweetness score (line scale 0 to 15) ([1]; Table 8, 6% sucrose alone): 6.6 | Average sweetness score (line scale 0 to 15) ([1]; Table 8, 8% sucrose alone): 8.1 | Average sweetness score (line scale 0 to 15) ([1]; Table 8, 9% sucrose alone): 8.6 | Average sweetness score (line scale 0 to 15) ([1]; Table 8, 10% sucrose alone): 9.6 | Average sweetness score (line scale 0 to 15) ([1]; Table 9, 2% sucrose alone): 2.2 | Average sweetness score (line scale 0 to 15) ([1]; Table 9, 4% sucrose alone): 4.0 | Average sweetness score (line scale 0 to 15) ([1]; Table 9, 6% sucrose alone): 5.5 | Average sweetness score (line scale 0 to 15) ([1]; Table 10, 6% sucrose alone): 7.3 | Average sweetness score (line scale 0 to 15) ([1]; Table 10, 8% sucrose alone): 7.9 | Average sweetness score (line scale 0 to 15) ([1]; Table 10, 9% sucrose alone): 8.6 | Average sweetness score (line scale 0 to 15) ([1]; Table 10, 10% sucrose alone): 9.6 | Average sweetness score (line scale 0 to 15) ([1]; Table 11, 2% sucrose alone): 2.1 | Average sweetness score (line scale 0 to 15) ([1]; Table 11, 4% sucrose alone): 3.9 | Average sweetness score (line scale 0 to 15) ([1]; Table 11, 6% sucrose alone): 5.7 | Average sweetness score (line scale 0 to 15) ([1]; Table 12, 6% sucrose alone): 6.8 | Average sweetness score (line scale 0 to 15) ([1]; Table 12, 8% sucrose alone): 8.3 | Average sweetness score (line scale 0 to 15) ([1]; Table 12, 9% sucrose alone): 8.6 | Average sweetness score (line scale 0 to 15) ([1]; Table 12, 10% sucrose alone): 9.5 | Average sweetness score (line scale 0 to 15) ([1]; Table 13, 2% sucrose alone): 1.9 | Average sweetness score (line scale 0 to 15) ([1]; Table 13, 4% sucrose alone): 3.9 | Average sweetness score (line scale 0 to 15) ([1]; Table 13, 6% sucrose alone): 5.5 | Average sweetness score (line scale 0 to 15) ([1]; Table 14, 6% sucrose alone): 6.5 | Average sweetness score (line scale 0 to 15) ([1]; Table 14, 8% sucrose alone): 8.5 | Average sweetness score (line scale 0 to 15) ([1]; Table 14, 9% sucrose alone): 8.7 | Average sweetness score (line scale 0 to 15) ([1]; Table 14, 10% sucrose alone): 9.7 | Average sweetness score (line scale 0 to 15) ([1]; Table 15, 6% sucrose alone): 7.0 | Average sweetness score (line scale 0 to 15) ([1]; Table 15, 8% sucrose alone): 8.4 | Average sweetness score (line scale 0 to 15) ([1]; Table 15, 9% sucrose alone): 9.0 | Average sweetness score (line scale 0 to 15) ([1]; Table 15, 10% sucrose alone): 9.1 | Average sweetness score (line scale 0 to 15) ([1]; Table 16, 2% sucrose alone): 2.0 | Average sweetness score (line scale 0 to 15) ([1]; Table 16, 4% sucrose alone): 4.1 | Average sweetness score (line scale 0 to 15) ([1]; Table 16, 6% sucrose alone): 5.7 | Average sweetness score (line scale 0 to 15) ([1]; Table 18, 2% sucrose alone): 2.4 | Average sweetness score (line scale 0 to 15) ([1]; Table 18, 4% sucrose alone): 4.2 | Average sweetness score (line scale 0 to 15) ([1]; Table 18, 6% sucrose alone): 5.9 | Average sweetness score (line scale 0 to 15) ([1]; Table 19, 6% sucrose alone): 7.3 | Average sweetness score (line scale 0 to 15) ([1]; Table 19, 8% sucrose alone): 8.6 | Average sweetness score (line scale 0 to 15) ([1]; Table 19, 9% sucrose alone): 9.1 | Average sweetness score (line scale 0 to 15) ([1]; Table 19, 10% sucrose alone): 9.7 | Average sweetness score (line scale 0 to 15) ([1]; Table 20, 2% sucrose alone): 8.6 | Average sweetness score (line scale 0 to 15) ([1]; Table 20, 4% sucrose alone): 9.1 | Average sweetness score (line scale 0 to 15) ([1]; Table 20, 6% sucrose alone): 9.7 | Average sweetness score (line scale 0 to 15) ([1]; Table 21, 6% sucrose alone): 6.5 | Average sweetness score (line scale 0 to 15) ([1]; Table 21, 8% sucrose alone): 8.3 | Average sweetness score (line scale 0 to 15) ([1]; Table 21, 9% sucrose alone): 9.4 | Average sweetness score (line scale 0 to 15) ([1]; Table 21, 10% sucrose alone): 9.4 | Average sweetness score (line scale 0 to 15) ([1]; Table 22, 6% sucrose alone): 6.5 | Average sweetness score (line scale 0 to 15) ([1]; Table 22, 8% sucrose alone): 8.2 | Average sweetness score (line scale 0 to 15) ([1]; Table 22, 9% sucrose alone): 9.2 | Average sweetness score (line scale 0 to 15) ([1]; Table 22, 10% sucrose alone): 9.4 | Average sweetness score (line scale 0 to 15) ([1]; Table 23, 6% sucrose alone): 6.8 | Average sweetness score (line scale 0 to 15) ([1]; Table 23, 8% sucrose alone): 8.7 | Average sweetness score (line scale 0 to 15) ([1]; Table 23, 9% sucrose alone): 9.5 | Average sweetness score (line scale 0 to 15) ([1]; Table 23, 10% sucrose alone): 9.5 | Average sweetness score (line scale 0 to 15) ([1]; Table 24, 6% sucrose alone): 6.5 | Average sweetness score (line scale 0 to 15) ([1]; Table 24, 8% sucrose alone): 8.4 | Average sweetness score (line scale 0 to 15) ([1]; Table 24, 9% sucrose alone): 9.2 | Average sweetness score (line scale 0 to 15) ([1]; Table 24, 10% sucrose alone): 9.4 | Average sweetness score (line scale 0 to 15) ([1]; Table 25, 6% sucrose alone): 6.7 | Average sweetness score (line scale 0 to 15) ([1]; Table 25, 8% sucrose alone): 8.1 | Average sweetness score (line scale 0 to 15) ([1]; Table 25, 9% sucrose alone): 9.3 | Average sweetness score (line scale 0 to 15) ([1]; Table 25, 10% sucrose alone): 9.2 | Average Sweetness ([1]; Table 26, 6% Sucrose alone, n = 24): 6.2 | Average Sweetness ([1]; Table 26, 8% Sucrose alone, n = 24): 8.3 | Average Sweetness ([1]; Table 26, 9% Sucrose alone, n = 24): 9.3 | Average Sweetness ([1]; Table 26, 10% Sucrose alone, n = 24): 9.8 | Average Sweetness ([1]; Table 26, 12% Sucrose alone, n = 24): 11.1 | Average Sweetness ([1]; Table 27, 6% Sucrose alone, n = 30): 6.7 | Average Sweetness ([1]; Table 27, 8% Sucrose alone, n = 30): 8.3 | Average Sweetness ([1]; Table 27, 10% Sucrose alone, n = 30): 10.3 | Average Sweetness ([1]; Table 27, 12% Sucrose alone, n = 30): 11.2 | Average Sweetness ([1]; Table 30, 2% Sucrose alone, n = 30): 2.3 | Average Sweetness ([1]; Table 30, 4% Sucrose alone, n = 30): 4.2 | Average Sweetness ([1]; Table 30, 6% Sucrose alone, n = 30): 5.8 | Average Sweetness ([1]; Table 31, 6% Sucrose alone, n = 28): 6.8 | Average Sweetness ([1]; Table 31, 8% Sucrose alone, n = 28): 8.5 | Average Sweetness ([1]; Table 31, 9% Sucrose alone, n = 28): 8.6 | Average Sweetness ([1]; Table 31, 10% Sucrose alone, n = 28): 9.6 | Average Sweetness ([1]; Table 32, 2% Sucrose alone, n = 28): 2.3 | Average Sweetness ([1]; Table 32, 4% Sucrose alone, n = 28): 4.5 | Average Sweetness ([1]; Table 32, 6% Sucrose alone, n = 28): 5.8

melting point: > 260 °C
SMILES: Cc1sc2[nH]c(=O)nc(N)c2c1C.Cl

melting point: 225 to 226 °C
SMILES: CCCNC(=O)C(C)(C)COc1cccc2c1C(N)=NS(=O)(=O)N2 [Example 215, 3-(4-Amino-2,2-dioxide-1H-benzo[c][1,2,6]thiadiazin-5-yloxy)-2′,2′-dimethyl-N-propylpropanamide]

SMILES: CCc1sc2[nH]c(=O)nc(N)c2c1C [Example 7, 4-Amino-6-ethyl-5-methylthieno[2,3-d]pyrimidin-2(1H)-one]
Average sweetness score (line scale 0 to 15) ([1]; Table 2, 100 μM compound alone in low sodium buffer): 0.1

SMILES: OC[C@H]1O[C@H](O[C@]2(CCl)O[C@H](CCl)[C@@H](O)[C@@H]2O)[C@H](O)[C@@H](O)[C@H]1Cl [Sucralose, sucralose]
Average sweetness score (line scale 0 to 15) ([1]; Table 1, 100 ppm sucralose alone): 6.3 | Average sweetness score (line scale 0 to 15) ([1]; Table 1, 200 ppm sucralose alone): 10.4 | Average sweetness score (line scale 0 to 15) ([1]; Table 1, 300 ppm sucralose alone): 11.5 | Average sweetness score (line scale 0 to 15) ([1]; Table 1, 400 ppm sucralose alone): 12.3 | Average sweetness score (line scale 0 to 15) ([1]; Table 3, 100 ppm sucralose alone): 7.4 | Average sweetness score (line scale 0 to 15) ([1]; Table 3, 200 ppm sucralose alone): 10.4 | Average sweetness score (line scale 0 to 15) ([1]; Table 3, 300 ppm sucralose alone): 10.5 | Average sweetness score (line scale 0 to 15) ([1]; Table 3, 400 ppm sucralose alone): 11.2 | Average sweetness score (line scale 0 to 15) ([1]; Table 3, 600 ppm sucralose alone): 13.0 | Average sweetness score (line scale 0 to 15) ([1]; Table 4, 100 ppm sucralose alone): 6.3 | Average sweetness score (line scale 0 to 15) ([1]; Table 4, 200 ppm sucralose alone): 9.5 | Average sweetness score (line scale 0 to 15) ([1]; Table 4, 300 ppm sucralose alone): 10.3 | Average sweetness score (line scale 0 to 15) ([1]; Table 4, 400 ppm sucralose alone): 12.1 | Average sweetness score (line scale 0 to 15) ([1]; Table 6, 100 ppm sucralose alone): 6.5 | Average sweetness score (line scale 0 to 15) ([1]; Table 6, 200 ppm sucralose alone): 9.1 | Average sweetness score (line scale 0 to 15) ([1]; Table 6, 300 ppm sucralose alone): 10.8 | Average sweetness score (line scale 0 to 15) ([1]; Table 6, 400 ppm sucralose alone): 11.2 | Average sweetness score (line scale 0 to 15) ([1]; Table 17, 100 ppm sucralose alone): 6.5 | Average sweetness score (line scale 0 to 15) ([1]; Table 17, 200 ppm sucralose alone): 9.0 | Average sweetness score (line scale 0 to 15) ([1]; Table 17, 300 ppm sucralose alone): 10.9 | Average sweetness score (line scale 0 to 15) ([1]; Table 17, 400 ppm sucralose alone): 12.3 | Average Sweetness ([1]; Table 28, 50 ppm sucralose alone, n = 28): 4.3 | Average Sweetness ([1]; Table 28, 100 ppm sucralose alone, n = 28): 6.2 | Average Sweetness ([1]; Table 28, 150 ppm sucralose alone, n = 28): 8.2 | Average Sweetness ([1]; Table 28, 200 ppm sucralose alone, n = 28): 8.9 | Average Sweetness ([1]; Table 28, 300 ppm sucralose alone, n = 28): 10.3
